Test results: patent US20250276069A1, “HETEROBIFUNCTIONAL COMPOSITIONS FOR TARGETED PROTEIN DEGRADATION AND METHODS FOR THEIR USE” (THE SCRIPPS RESEARCH INSTITUTE, priority 2021, published 2025)

System: HCC1806 cells
Test: TMT MS quantitative proteomics of live cells treated with FragTAC probes (HCC1806)
Format: cell-based, Homo Sapiens
Conditions: for Proteins targeted (downregulated) by FragTAC probe: value = downregulated protein
Method: Mammalian cell culture: MDA-MB-231 cells (ATCC) were maintained in DMEM supplemented with 10% (v/v) fetal bovine serum (FBS), 1% (v/v) penicillin/streptomycin, and 2 mM glutamine. HCC1806 cells (ATCC) were maintained in RPMI supplemented with 10% (v/v) fetal bovine serum (FBS), 1% (v/v) penicillin/streptomycin, and 2 mM glutamine. All cell lines were grown at 37° C. in a humidified 5% CO2 atmosphere.
Treatment of Live Cells with FragTAC Probes: Separate 6 cm (for gel-based analyses) or 10 cm (for MS-based analyses) dishes of MDA-MB-231 cells or HCC1806 cells were grown to 80-95% confluency with DMEM media and RPMI media respectively. The growth medium was aspirated, and the cells were washed with Dulbecco's phosphate buffered saline (DPBS). The cells were incubated with serum-free media containing fragment probes (200 μM) or control probes (200 μM) for 6 hours at 37° C. under a 5% CO2 atmosphere. The cultures were scraped, washed with cold DPBS, and collected into 15 mL centrifuge tubes, then transferred to 1.5 mL Eppendorf tubes. The cell suspensions were centrifuged (1,400 g, 3 min) and the pellets were stored at −80° C. until the next stage of processing.
Sample preparation for TMT MS Quantitative Proteomics: For treatment of cell lysates, cells were collected, cell pellets were resuspended in 100 μL DPBS containing 1× Halt protease inhibitor cocktail, and lysed by sonication (15 ms on, 40 ms off, 15% amplitude, 1 s total). Protein concentrations were normalized (2 mg/mL in 100 μL with cold DPBS) using the Lowry Protein Assay (Pierce). Urea (48 mg) was weighed for each sample in 2 mL LoBind Eppendorf tubes and cell lysates (100 μL=200 μg) were added (final urea concentration=8 M). Pellets were resuspended in a freshly prepared 1:1 solution (50 μL) TCEP (200 mM in DPBS) and K2CO3 (600 mM in DPBS) and incubated (30 min, 37° C.) while shaking. After reaction, a solution of freshly prepared iodoacetamide (70 μL, 400 mM in DPBS) was added and incubated for 30 min at room temperature while protected from light. After reaction, 1.8 mL of cold 3:1:2 MeOH/CHCl3/H2O solution was added to each tube, and the samples were centrifuged (10,000×g, 10 min, 4° C.), forming a disc. The supernatant was carefully removed, MeOH (600 μL) was added, samples were centrifuged as previously described and the supernatant was removed. Cell pellets were resuspended in TEAB (160 μL, 100 mM, pH 8.5) and sonicated as described previously. Endoproteinase LysC (20 μL, ½ vial, 10 μg dissolved in 220 μL of 100 mM TEAB pH 8.5) was added to each and incubated at 37° C. for 2 h with shaking. Sequencing-grade modified porcine trypsin (20 μL, 1 vial, 20 μg dissolved in 220 μL of 100 mM TEAB pH 8.5), a solution of Protease Max (2 μL, 1% (w/v) in 100 mM TEAB pH 8.5) and a solution of CaCl2) (2 μL, 100 mM) were added to the samples and incubated at 37° C. overnight (14 h) with shaking. The digest was separated by centrifugation (12,000×g, 10 min, 4° C.). Peptide concentration was determined using Pierce Quantitative Fluorometric Peptide Assay Kit (Thermo Fisher Scientific, 23290) according to manufacturer's instructions. MS-grade acetonitrile (12.5 μL) was added to each and samples were labeled with respective TMT 10 plex isotope (8 μL, 20 μg/μL) for 1 h with occasional vortexing at RT. To quench, hydroxylamine (3 μL, 5% v/v) was added to each sample, vortexed, and incubated for 15 min at RT. Formic acid (5 μL) was added to each tube to acidify and the samples were dried under vacuum centrifugation. The samples were combined by redissolving the contents of one tube in a solution of trifluoroacetic acid (TFA, 400 μL, 0.1% in water) and transferred into each sample until all samples were redissolved. The stepwise process was repeated with formic acid (Buffer A, 200 μL, 0.1% in water) for a final volume of 600 μL. […]

[1] = TMT proteomics, targets with 2 unique peptides or more and depleted 2-fold or more relative to DMSO control (P value <0.05)

| SMILES | Proteins targeted (downregulated) by FragTAC probe [1] | Downregulated proteins targeted by FragTAC probes (protein listed for the probe code) (TMT proteomics, targets with 2 unique peptides or more and depleted 2-fold or more relative to DMSO control (P value <0.05), cell line not given) | Proteins targeted (downregulated) by FragTAC probe (protein with 2 unique peptides or more, depleted 2-fold or more relative to DMSO control (P value <0.05)) |
| --- | --- | --- | --- |
| Cc1ncsc1-c1ccc(CNC(=O)[C@@H]2C[C@@H](O)CN2C(=O)[C@@H](NC(=O)CCOCCOCCOCCC(=O)NCCc2cn(Cc3ccccc3)c3ccccc23)C(C)(C)C)cc1 [IF-063, (2S,4R)-1-((S)-19-(1-benzyl-1H-indol-3-yl)-2-(tert-butyl)-4,16-dioxo-7,10,13-trioxa-3,17-diazanonadecanoyl)-4-hydroxy-N-(4-(4-methylthiazol-5-yl)benzyl)pyrrolidine-2-carboxamide] | TMBIM6 | – | – |
| Cc1ccc(S(=O)(=O)N2CCN(C(=O)CCCCC(=O)N[C@H](C(=O)N3C[C@H](O)C[C@H]3C(=O)NCc3ccc(-c4scnc4C)cc3)C(C)(C)C)CC2)cc1 [IF-080, (2S,4R)-1-((S)-3,3-dimethyl-2-(6-oxo-6-(4-tosylpiperazin-1-yl)hexanamido)butanoyl)-4-hydroxy-N-(4-(4-methylthiazol-5-yl)benzyl)pyrrolidine-2-carboxamide] | PRC1 and RACGAP1 and TPX2 and TXNIP and UHRF1 | CTSZ and INCENP and KIF20A and KIF22 and ANLN | ZBTB11 |
